Measured values from patent US7538090B1, “Exogenous surfactant protein B mimic” (Los Angeles Biomedical Research Institute at Harbor-UCLA …, priority 2004, dated 2009).
“Also recorded” adds a separate entry of the source.

Columns and labels:
lavaged rat model of RDS = assay: Oxygenation response in lavaged rat model of RDS; assay type: in vivo; conditions: for in vivo activity in the rat RDS model system: FIGS. 6A and 6B (oxygenation and dynamic compliance)
Excerpt: FIG. 6A illustrates an example of an oxygenation response of a lavaged rat model of RDS comparing INFASURF™, a known effective animal based (cow lung lavage that includes surfactant lipids and native Cow SP-B and SP—C proteins) supplement formulation (—◯—), pig native surfactant B in INFASURF™ lipids (—Δ—), Mini-B peptide in simulated INFASURF™ lipids (—▪—), the C-terminal domain of SP-B (residues 63-78) in the oxidized (--♦--) and reduced format (—∇--), a serine derivative the C-terminal domain of SP-B (residues 63-78) with cationic arginines (R) replaced with serine residues, in oxidized (—◯--) and (—∇—) format, the N-terminal domain of SP-B (residues 11 to 25 of native SP-B) in the monomer (—□—) and a dimer (—●--) conformation and ISPL alone (—Δ—). […] A Mini-B construct also compares favorably with the commercial preparation INFASURF™ that contains both the native SP-B and SP—C protein.
(§1) The activity of a Mini-B construct is very similar to that of the commercial preparation INFASURF™ that includes equimolar amounts of native SP-B in native lung surfactant lipids and native SP—C proteins typically used in present RDS therapies.

[1] = Surface shear viscosity measurements in ISPL lipid dispersion; assay type: physicochemical; conditions: over surface pressures and compression-expansion cycles, FIG. 7
Excerpt: Surface shear viscosity measurements of a Mini-B construct in a simulated INFASURF™ lipid dispersion ISPL (cow lung lavage lipids) is represented in FIG. 7.

[2] = Langmuir trough surface activity (surface pressure upon compression, respreading); assay type: physicochemical; conditions: in ISPL lipids vs lipids alone, FIG. 8, 9
Excerpt: Langmuir trough measurements of a Mini-B construct in ISPL lipids are represented in FIG. 8. The peptide at two different concentrations is compared to lipids […]. Lipids alone on the Langmuir trough show very little change in surface pressure with compression of the air-water interface film. […] Higher concentrations of a Mini-B construct in the lipids further enhance the surface activity of the preparation and show the characteristic chances in surface pressure as a function of compression/decompression of the lipid-peptide surface film that are associated with optimal in vitro activity typical of lung surfactant preparations containing SP-B native protein.
FIG. 9 illustrates Langmuir trough measurements of a Mini-B construct in ISPL. The construct was measured at a single concentration to show the consistent pressure dependent reproducibility of the construct in the lipids that is an important criteria of an effective lung surfactant dispersion. Lipids alone on the Langmuir trough show very little change in surface pressure with compression of the air-water interface film. […]

[3] = tested on: Rat RDS animal model system; assay: Dynamic compliance measurements in the Rat RDS animal model system; assay type: in vivo; conditions: peptide in simulated INFASURF lipids (ISPL), FIG. 6B
Excerpt: FIG. 6B represents dynamic compliance measurements (a measure of lung mechanical plasticity) in the Rat RDS animal model system comparing INFASURF™ replacement formulation, pig native surfactant B in INFASURF™ lipids (—◯—), a Mini-B construct in simulated INFASURF™ lipids (—▪—), the C-terminal domain of SP-B (residues 63-78) in the oxidized (--♦--) and reduced (—∇--) format, a serine derivative the C-terminal domain of SP-B (residues 63-78) with cationic arginines (R) replaced with serine residues, in oxidized (—◯--) and (—∇—) format, the N-terminal domain of SP-B (residues 11 to 25 of native SP-B) in the monomer (—□—) and dimer (—●--) conformation and ISPL alone (—Δ—).
as §1

[4] = Brewster Angle Microscope images of monolayer surfaces on the Langmuir trough; assay type: physicochemical; conditions: Mini-B-ISPL lipids vs lipids alone; BAM images, FIG. 11
Excerpt: Brewster Angle Microscope images of monolayer surfaces of Mini-B-ISPL lipids versus lipids alone on the Langmuir trough as a fimcfion of surface pressure is represented in FIG. 11. […] This Mini-B induced lipid aggregation in monolayers is typical of the effect of native surfactant protein B and surfactant B type peptides.
Brewster Angle Microscope images of monlayer surfaces of Mini-B-synthetic cow lung lipids compared with the commercial surfactant preparation INFASURF™ that contains native SP-B and SP-C proteins is represented in FIG. 12. Preparations containing Mini-B aggregate lipids were similar to the commercial surfactant preparation.

Substance | in vivo activity in the rat RDS model system (lavaged rat model of RDS) | shear surface viscosity [1] | oxygenation response (lavaged rat model of RDS; lavaged rat model of RDS, peptide in simulated INFASURF lipids (ISPL), FIG. 6A) | surface activity (surface pressure as a function of film compression) [2] | dynamic compliance [3] | lipid aggregation in monolayers [4]
B11-25: N-terminal domain of SP-B (residues 11 to 25 of native SP-B) (CRALIKRIQAMIPKG; Pulmonary surfactant-associated protein B; UniProt P07988 211-225, looked up, fragment) [reference compound] | relatively ineffective in vivo activity | – | – | – | – | –
B63-78: C-terminal domain of SP-B (residues 63-78) (GRMLPQLVCRLVLRCS; Pulmonary surfactant-associated protein B; UniProt P07988 263-278, looked up, fragment) [reference compound] | relatively ineffective in vivo activity | – | – | – | – | –
CWLCRALIKRIQAMIPKGGRMLPQLVCRLVLRCS [Mini-B, disulfide stabilized 34 residue cyclic peptide joining SP-B residues 8 to 25 and 63 to 78] | exceeds that observed for native pig SP-B in synthetic surfactant lipids | remains constant at a large range of surface pressures | outperforms all of the peptide segments of Mini-B separately; also recorded: closely parallels the oxygenation response that is observed for full-length native SP-B protein | enhances the surface activity | performs very nearly as well as the commercial preparation | aggregate
